# Source: patent US4707497A, “Phenylethanolaminotetralines, a process for their preparation and pharmaceutical compositions containing them” (Sanofi, priority 1985, dated 1987)
# Counter-ions that a name gives are not always drawn.
# Columns and labels:
# interscapular BAT = experiment: Activity on brown adipose tissue thermogenesis in vivo in anaesthetized rats; set-up: species or system rat; conditions: 7.5 mg/kg intraperitoneally
# Experimental: In the test "in vivo", the activity on brown adipose tissue thermogenesis is determined by the method reported by P. J. Wellman, Research Communication in Chemical Pathology and Pharmacology 1983, 41, 173-176.
# The anaesthesied rats are treated intraperitoneally with the vehicle and 7.5 mg/kg of the compound to be tested. The interscapular BAT and rectal temperatures are recorded 10, 20 and 30 minutes after the injection.
# [1] = system: adipocytes of the interscapular brown adipose tissue; experiment: Lipolytic activity in vitro on brown adipose tissue (BAT) adipocytes, release of free fatty acids; type: cell-based; conditions: Rattus norvegicus, Adipocyte; compound 10^-6 M; per cent of noradrenaline effect at 5.10^-6 M (maximal effect); 37° C., 1 hour, pH 7.4
# Description: (§1) More particularly, the compounds of the present invention show a remarkable lipolytic activity in mammals in the tests predictive of said activity, such as in the test "in vitro" on the brown adipose tissue (BAT) and on the white adipose tissue (WAT) and in the test "in vivo", based upon the thermogenesis in the rat. More particularly, in the test "in vitro" male rats, each weighing 100-125 g, are sacrificed and the adipocytes of the interscapular brown adipose tissue and those of the epididymal white adipose tissue are dissected out, according to the method of M. Rodbell, J. Biol. Chem. 1967, 242, 5744-5750 and separately treated as follows. The adipocytes are incubated with the compound to be tested at a temperature of 37° C. for an hour in Phosphate Krebs-Ringer-(4%) albumine medium at pH 7.4. The long chain fatty acids that are released in the medium are determinated by the method reported by D.I. Trout and al., J. Lip. Res. 1960, 1, 199-202, and compared with the amount of the triglycerides present in the adipocytes, determined by the method of E. Van Handel and al., J. Lab. Clin. Med., 1957, 50, 152-157. The results obtained for representative compounds of the present invention are shown in TABLE I, where the lipolytic activity of the compounds at the dose of 10^-6 M, measured as release of free fatty acids (μEq), is expressed as per cent of the noradrenaline effect at the dose of 5.10^-6 M (maximal effect on both BAT and WAT).
# [2] = system: epididymal white adipose tissue adipocytes; experiment: Lipolytic activity in vitro on white adipose tissue (WAT) adipocytes, release of free fatty acids; type: cell-based; conditions: Rattus norvegicus, Adipocyte; compound 10^-6 M; per cent of noradrenaline effect at 5.10^-6 M (maximal effect); 37° C., 1 hour, pH 7.4
# Description: as §1
# mice = experiment: Acute toxicity in mice; type: in vivo, mouse; conditions: oral dose up to 200 mg/kg
Compound,"ΔT, average difference between interscapular BAT temperature and rectal temperature (interscapular BAT; 10' after injection, anaesthetized rats (vehicle 0.06 ± 0.04)) [°C]","ΔT, average difference between interscapular BAT temperature and rectal temperature (interscapular BAT; 20' after injection, anaesthetized rats (vehicle 0.10 ± 0.04)) [°C]","ΔT, average difference between interscapular BAT temperature and rectal temperature (interscapular BAT; 30' after injection, anaesthetized rats (vehicle 0.14 ± 0.05)) [°C]",activation at 1 µM [1] [%],activation at 1 µM [2] [%],mortality (mice)
"Oc1ccc2c(c1)CC(NCC(O)c1ccccc1)CC2 (stereo not shown) [SR 58306, 2-[(7-hydroxy-1,2,3,4-tetrahydronaphth-2-yl)amino]-1-phenylethanol]",0.60 ± 0.10,0.90 ± 0.10,0.92 ± 0.08,,,
"CCOC(=O)COc1ccc2c(c1)CC(NCC(O)c1cccc(Cl)c1)CC2.O=C(O)C(=O)O (stereo not shown) [SR 58380A, 2-[(7-carbethoxymethoxy-1,2,3,4-tetrahydronaphth-2-yl)amino]-1-(3-chlorophenyl)ethanol oxalate]",,,,96,90,do not cause any mortality
"COc1ccc2c(c1)CC(NCC(O)c1ccccc1)CC2 (stereo not shown) [SR 58279A, 2-[(7-methoxy-1,2,3,4-tetrahydronaphth-2-yl)amino]-1-phenylethanol hydrochloride]",,,,50,30,
"Oc1ccc2c(c1)CC(NCC(O)c1ccccc1)CC2 (stereo not shown) [SR 58306A, 2-[(7-hydroxy-1,2,3,4-tetrahydronaphth-2-yl)amino]-1-phenylethanol hydrochloride]",,,,80,78,
"Oc1ccc2c(c1)CC(NC[C@H](O)c1ccccc1)CC2 (single isomer, unassigned; (+)) [SR 58375A, hydrochloride]",,,,100,97,
"COc1ccc2c(c1)CC(NCC(O)c1cccc(Cl)c1)CC2 (stereo not shown) [SR 58338A, 2-[(7-methoxy-1,2,3,4-tetrahydronaphth-2-yl)amino]-1-(3-chloropheny)ethanol hydrochloride]",,,,77,89,
"Cl.Oc1ccc2c(c1)CC(NCC(O)c1cccc(Cl)c1)CC2 (stereo not shown) [SR 58339A, 2-[(7-hydroxy-1,2,3,4-tetrahydronaphth-2-yl)amino]-1-(3-chlorophenyl)-ethanol hydrochloride]",,,,103,92,do not cause any mortality
"Oc1ccc2c(c1)CC(NC[C@H](O)c1ccccc1)CC2 (stereo partly drawn) [SR 58365A, (1R,2'RS)-2-[(7-hydroxy-1,2,3,4-tetrahydronaphth-2-yl)amino]-1-phenylethanol hydrochloride]",,,,96,78,
